Columns and labels:
[1] = Cytotoxicity against human PANC1 cells under nutrient-deprived condition after 24 hrs by WST8 dye based assay; assay type: functional; conditions: PANC-1, 24 h, read-out: LC50 (the source's name)
[2] = Cytotoxicity against human PANC1 cells under nutrient-rich condition after 24 hrs by WST8 dye based assay; assay type: functional; conditions: PANC-1, 24 h, read-out: LC50 (the source's name)
PANC-1 [3] = assay: Induction of apoptosis in human PANC1 cells under nutrient-deprived condition after 24 hrs; assay type: functional, cell-based
PANC-1 [4] = assay: Stimulation of cell growth in human PANC1 cells at 6.25 to 50 uM under nutrient-deprived condition after 24 hrs by WST8 dye based assay; assay type: functional

CC(C)=CCC/C(C)=C/CC/C(C)=C/COc1cc2ccccc2oc1=O
CC50 [1]: 12 µM
CC50 [2]: > 100 µM

CC(C)=CCC/C(C)=C/COc1cc2ccccc2oc1=O
CC50 [1]: 37 µM
CC50 [2]: > 100 µM

CC(C)=CCOc1cc2ccccc2oc1=O
CC50 [1]: > 100 µM
CC50 [2]: > 100 µM

CC(C)=CCOc1ccc2oc(=O)ccc2c1
CC50 [1]: > 100 µM
CC50 [2]: > 100 µM

CC(C)=CCC/C(C)=C/COc1ccc2oc(=O)ccc2c1
CC50 [1]: 12 µM
CC50 [2]: > 100 µM

CC(C)=CCC/C(C)=C/CC/C(C)=C/COc1ccc2oc(=O)ccc2c1
Activity (PANC-1 [3]): Dose-dependent effect
CC50 [1]: 4 µM
CC50 [2]: > 100 µM

CC(C)=CCO
CC50 [1]: > 100 µM
CC50 [2]: > 100 µM

O=c1oc2ccccc2cc1O [3-HYDROXYCOUMARIN]
CC50 [1]: > 100 µM
CC50 [2]: > 100 µM

O=c1ccc2cc(O)ccc2o1 [6-HYDROXYCOUMARIN]
CC50 [1]: > 100 µM
CC50 [2]: > 100 µM

CC(C)=CCOc1ccc2ccc(=O)oc2c1 [7-PRENYLOXYCOUMARIN]
CC50 [1]: 83 µM
CC50 [2]: > 100 µM

CC(C)=CCC/C(C)=C/COc1ccc2ccc(=O)oc2c1 [AURAPTENE]
CC50 [1]: 21 µM
CC50 [2]: > 100 µM

CC(C)=CCC/C(C)=C/CC/C(C)=C/CO [FARNESOL]
Activity (PANC-1 [4]): 40%
CC50 [2]: > 100 µM

CC(C)=CCC/C(C)=C/CO [GERANIOL]
Activity (PANC-1 [4]): 20%
CC50 [2]: > 100 µM

O=c1ccc2ccc(O)cc2o1 [UMBELLIFERONE]
CC50 [1]: > 100 µM
CC50 [2]: > 100 µM

CC(C)=CCC/C(C)=C/CC/C(C)=C/COc1ccc2ccc(=O)oc2c1 [UMBELLIPRENIN]
CC50 [1]: 18 µM
CC50 [2]: > 100 µM
